Measurements: patent US20260176274A1, “ENAMINE N-OXIDE TOOLS FOR TARGET IDENTIFICATION APPLICATIONS” (DANA-FARBER CANCER INSTITUTE, INC., priority 2022, published 2026)

What was measured:
BRD4 = target: T1, BRD4 (Homo sapiens, UniProt O60885); assay: In cellulo BARS labeling in live HEK293T cells, immunoblot against BRD4; assay type: cell-based; conditions: probe 5 μM, B2(OH)4 100 μM 10 min
T1 construct: In Cellulo BARS Labeling of Endogenous Target Proteins; endogenous in cells; host or cells: HEK293T
Description: HEK293T cells were cultured in DMEM containing 10% FBS (Sigma), 100 units/mL penicillin, and 0.1 mg/mL streptomycin (Sigma) in a humidified chamber at 37° C. under an ambient atmosphere with 5% CO2. After culturing to >80% confluency in 150 mm plates, the plates were removed from the incubator, the media was aspirated, and the cells were trypsinized at 37° C. with 0.25% trypsin, 0.1% EDTA in HBSS (3 mL). After 3 min, complete growth medium (7 mL) was added to the detached cells, and the cell suspension was transferred to a 50 mL centrifuge tube. Cells were pelleted (400×g, 4 min, 23° C.) and washed with 2×20 mL PBS, pH 7.4. At this point, the density of the cell suspension in PBS was determined by the trypan blue exclusion method. The cells were pelleted once more, and the volume of PBS was adjusted to produce a cell suspension with a final density of 2×10^7 cells/mL. The cell suspension was aliquoted into 2 mL microcentrifuge tubes (3×1 mL, 2×10^7 cells each). […] Competitor 21′ (50 μM final concentration, from a 500 mM stock in DMSO) was also added to the third tube. The samples were incubated at 37° C. with end-over-end rotation. After 2 h of incubation, the cells were pelleted (400×g, 4 min, 23° C.) and washed once with PBS, pH 7.4.

BRD2/3/4 [1] = target: T2, BRD2/3/4 (Homo sapiens, UniProt O60885); assay: Pulldown-MS chemoproteomics in HEK293T cell lysate, (+)-JQ1 probe; assay type: binding; conditions: filter 3 quantified peptides in 3 replicates
T2 construct: In Vitro BARS Labeling of Endogenous Target Proteins in Cell Lysate; endogenous in cells; host or cells: HEK293T lysate
Description: (§1) The same procedure as the “Streptavidin pull-down” was followed up to the wash steps. After the final wash, the supernatant was completely removed. Formamide elution buffer (95% v/v formamide, 5% v/v 100 mM sodium acetate, pH 10, 50 μL) was then added to the beads with gentle mixing. The beads were heated to 95° C. for 10 min, pelleted, and the supernatant was removed while hot and then allowed to cool to rt. The formamide elution was repeated a second time for a combined eluate volume of approximately 100 μL. The eluate samples were then submitted to the Dana-Farber TPD Core facility for further processing. […]
(§2) Peptides were analyzed on an Ultimate™ 3000 RSLCnano system coupled to a Tribrid series mass spectrometer (Thermo Fisher Scientific™). […]
(§3) RAW file processing, false discovery rate filtering (<1%), and protein roll-up and MS1 intensity-based label-free quantification (Minora algorithm) were achieved using Proteome Discoverer 2.5 (Thermo Fisher Scientific™). […] Peptides were quantified by precursor ion abundance and summed across proteins.
(§4) Proteins were filtered to include those with three or more unique peptides quantified across four replicate treatments, unless otherwise stated. […] All peptides of target proteins quantified at the single peptide level were manually inspected to ensure accuracy in quantification.

BRD2/3/4 [2] = assay: as above; assay type: binding, human; conditions: filter 1 quantified peptide in 3 replicates; against competitor or enantiomer controls
Description: as §1, §2, §3, §4

## C#CCCC[N+](C)([O-])/C(Br)=C/C(Cl)CCCC(=O)NCCCCCCNC(=O)C[C@@H]1N=C(c2ccc(Cl)cc2)c2c(sc(C)c2C)-n2c(C)nnc21 (stereo partly drawn) [22′a, (Z)-1-Bromo-3-chloro-7-((6-(2-((S)-4-(4-chlorophenyl)-2,3,9-trimethyl-6H-thieno[3,2-f][1,2,4]triazolo[4,3-al][1,4]diazepin-6-yl)acetamido)hexyl)amino)-N-methyl-7-oxo-N-(pent-4-yn-1-yl)hept-1-en-1-amine oxide]
BRD4
  target identification in live HEK293T cells (BRD4): successfully executed
BRD2/3/4 [1]
  chemoproteomics protein identified: BRD4 was identified
BRD2/3/4 [2]
  chemoproteomics hits: BRD2/3/4 were identified as hits
